Reference: patent publication US7659404B2, “Broad spectrum 2-(substituted-amino)-benzothiazole sulfonamide HIV protease inhibitors” (Tibotec Pharmaceuticals Ltd., priority 2001, dated 2010)

Assays:
virus strain F (R13025) = assay: microbe, parasite or virus in culture; assay type: cell-based, HIV; settings: FR=EC50(mutant strain)/EC50(HIV-1 strain LAI); strain F
Outline: (§1)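 HIV-infected MT4 cells were incubated five days with inhibitor, and viability was read by MTT reduction at 540 nm. EC50/EC90 are the concentrations protecting 50%/90% of cells from viral cytopathic effect. Fold resistance is EC50 against the clinical isolate divided by EC50 against HIV-1 LAI.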

virus strain S (R13080) = assay: microbe, parasite or virus in culture; assay type: cell-based, HIV; settings: FR=EC50(mutant strain)/EC50(HIV-1 strain LAI); strain S
Outline: as §1

[1] = system: clinically isolated HIV strain H; assay type: cell-based; settings: FR=EC50(mutant strain)/EC50(HIV-1 strain LAI)
Experimental: (§2) HIV- or mock-infected MT4 cells were incubated for five days in the presence of various concentrations of the inhibitor. […] Cell viability is measured by measuring the concentration of MTT, a yellow, water soluble tetrazolium dye that is converted to a purple, water insoluble formazan in the mitochondria of living cells only. Upon solubilization of the resulting formazan crystals with isopropanol, the absorbance of the solution is monitored at 540 nm. The values correlate directly to the number of living cells remaining in the culture at the completion of the five day incubation. The inhibitory activity of the compound was monitored on the virus-infected cells and was expressed as EC50 and EC90. These values represent the amount of the compound required to protect 50% and 90%, respectively, of the cells from the cytopathogenic effect of the virus. The toxicity of the compound was measured on the mock-infected cells and was expressed as CC50, which represents the concentration of compound required to inhibit the growth of the cells by 50%. The selectivity index (SI) (ratio CC50/EC50) is an indication of the selectivity of the anti-HIV activity of the inhibitor.
(§3) Because of the increasing emergence of drug resistant HIV strains, the present compounds were tested for their potency against clinically isolated HIV strains harboring several mutations.
(§4) As a measure of the broad spectrum activity of the present compounds, the fold resistance (FR) defined as FR=EC50(mutant strain)/EC50(HIV-1 strain LAI).

[2] = system: clinically isolated HIV strain I; assay type: cell-based; settings: FR=EC50(mutant strain)/EC50(HIV-1 strain LAI)
Experimental: as §2, §3, §4

[3] = system: clinically isolated HIV strain J; assay type: cell-based; settings: FR=EC50(mutant strain)/EC50(HIV-1 strain LAI)
Experimental: as §2, §3, §4

[4] = system: clinically isolated HIV strain O; assay type: cell-based; settings: FR=EC50(mutant strain)/EC50(HIV-1 strain LAI)
Experimental: as §2, §3, §4

[5] = system: clinically isolated HIV strain T; assay type: cell-based; settings: FR=EC50(mutant strain)/EC50(HIV-1 strain LAI)
Experimental: as §2, §3, §4

Row | SMILES | fold resistance (FR), strain F (virus strain F (R13025)) | fold resistance (FR), strain S (virus strain S (R13080)) | fold resistance (FR), strain H [1] | fold resistance (FR), strain I [2] | fold resistance (FR), strain J [3] | fold resistance (FR), strain O [4] | fold resistance (FR), strain T [5]
1 | CC(C)CN(C[C@@H](O)[C@H](Cc1ccccc1)NC(=O)O[C@H]1CO[C@H]2OCC[C@H]21)S(=O)(=O)c1ccc2nc(N3CCN(C)C(=O)C3)sc2c1 [Compound 24] | 16.6 | 24.1 | 4.7 | 1.1 | 4.5 | 1.6 | 174.9
2 | CC(C)CN(C[C@@H](O)[C@H](Cc1ccccc1)NC(=O)O[C@H]1CO[C@H]2OCC[C@H]21)S(=O)(=O)c1ccc2nc(N3CCN(C)C3=O)sc2c1 [Compound 25] | 26.0 | 42.5 | 4.7 | 3.5 | 6.0 | 5.6 | 619.8
3 | CC(C)CN(C[C@@H](O)[C@H](Cc1ccccc1)NC(=O)O[C@H]1CO[C@H]2OCC[C@H]21)S(=O)(=O)c1ccc2nc(N3CCN(C)CC3=O)sc2c1 [Compound 26] | 29.6 | 34.1 | 20.3 | 6.6 | 9.2 | 10.6 | 345.6
4 | CCOC(=O)N(CCN(C)C)c1nc2ccc(S(=O)(=O)N(CC(C)C)C[C@@H](O)[C@H](Cc3ccccc3)NC(=O)O[C@H]3CO[C@H]4OCC[C@H]43)cc2s1 [Compound 28] | 2.3 | 4.4 | 1.8 | 1.4 | 0.7 | 0.8 | 12.7
5 | CC(C)CN(CC(O)C(Cc1ccccc1)NC(=O)OC1CNC(=O)C1)S(=O)(=O)c1ccc2nc(NC(=O)CN(C)C)sc2c1 (centres unmarked) [Compound 36] | 0.2 | 0.2 | 0.6 | 0.5 | 0.2 | 0.2 | 0.2
6 | CC(C)CN(C[C@@H](O)[C@H](Cc1ccccc1)NC(=O)OCc1cccnc1)S(=O)(=O)c1ccc2nc(NCCN(C)C)sc2c1 [Compound 38] | 12.4 | 11.9 | 2.0 | 1.1 | 3.9 | 1.2 | 230.4
7 | Cc1c(N)cccc1C(=O)N[C@@H](Cc1ccccc1)[C@H](O)CN(CC(C)C)S(=O)(=O)c1ccc2nc(NCCN(C)C)sc2c1 [Compound 39] | 19.7 | 16.5 | 2.3 | 2.4 | 2.2 | 1.7 | 249.9
8 | Cc1cccc(C)c1OCC(=O)N[C@@H](Cc1ccccc1)[C@H](O)CN(CC(C)C)S(=O)(=O)c1ccc2nc(NCCN(C)C)sc2c1 [Compound 40] | 7.2 | 12.8 | 2.1 | 6.4 | 2.7 | 3.2 | 87.8
9 | CC(C)CN(C[C@@H](O)[C@H](Cc1ccccc1)NC(=O)OCc1cccnc1)S(=O)(=O)c1ccc2nc(NCCN3CCCC3)sc2c1 [Compound 41] | 44.4 | 37.6 | 2.3 | 2.5 | 5.6 | 2.0 | 252.5
10 | Cc1c(N)cccc1C(=O)N[C@@H](Cc1ccccc1)[C@H](O)CN(CC(C)C)S(=O)(=O)c1ccc2nc(NCCN3CCCC3)sc2c1 [Compound 45] | 17.3 | 19.9 | 1.2 | 4.0 | 1.1 | 1.3 | 103.0
11 | Cc1cccc(C)c1OCC(=O)N[C@@H](Cc1ccccc1)[C@H](O)CN(CC(C)C)S(=O)(=O)c1ccc2nc(NCCN3CCCC3)sc2c1 [Compound 46] | 4.7 | 7.1 | 1.3 | 3.3 | 2.8 | 3.2 | 44.4
12 | CC(C)CN(C[C@@H](O)[C@H](Cc1ccccc1)NC(=O)OCc1cncs1)S(=O)(=O)c1ccc2nc(NCCN(C)C)sc2c1 [Compound 48] | 9.4 | 13.8 | 2.5 | 2.5 | 6.5 | 4.3 | 175.0
13 | CC(C)CN(C[C@@H](O)[C@H](Cc1ccccc1)NC(=O)OCc1cncs1)S(=O)(=O)c1ccc2nc(NCCN3CCCC3)sc2c1 [Compound 49] | 12.8 | 17.8 | 3.6 | 2.9 | 5.5 | 3.9 | 114.0
14 | CC(C)CN(C[C@@H](O)[C@H](Cc1ccccc1)NC(=O)OCc1cncs1)S(=O)(=O)c1ccc2nc(NCCN3CCCC3)sc2c1.O=C(O)C(F)(F)F [Compound 50] | 8.6 | 27.9 | 1.4 | 1.7 | 7.0 | 3.5 | 165.5
15 | CC(C)CN(C[C@@H](O)[C@H](Cc1ccccc1)NC(=O)OCc1cncs1)S(=O)(=O)c1ccc2nc(NCCCN(C)C)sc2c1 [Compound 51] | 2.9 | 2.1 | 1.8 | 2.6 | 0.9 | 0.6 | 51.8
16 | CC(C)CN(C[C@@H](O)[C@H](Cc1ccccc1)NC(=O)OCc1cccnc1)S(=O)(=O)c1ccc2nc(NCCCN(C)C)sc2c1 [Compound 52] | 10.2 | 20.3 | 1.8 | 1.3 | 2.7 | 1.6 | 124.5
17 | Cc1cccc(C)c1OCC(=O)N[C@@H](Cc1ccccc1)[C@H](O)CN(CC(C)C)S(=O)(=O)c1ccc2nc(NCCCN(C)C)sc2c1 [Compound 53] | 2.1 | 3.8 | 0.6 | 1.3 | 1.4 | 1.6 | 49.8
18 | Cc1c(N)cccc1C(=O)N[C@@H](Cc1ccccc1)[C@H](O)CN(CC(C)C)S(=O)(=O)c1ccc2nc(NCCCN(C)C)sc2c1 [Compound 54] | 3.6 | 1.8 | 0.6 | 0.9 | 0.4 | 0.4 | 1.4
19 | CC(C)CN(C[C@@H](O)[C@H](Cc1ccccc1)NC=O)S(=O)(=O)c1ccc2nc(NC(=O)CN3CCCC3)sc2c1 [Compound 55] | 26.2 | 26.2 | 10.0 | 9.1 | 26.2 | 26.2 | 26.2
20 | CC(C)CN(C[C@@H](O)[C@H](Cc1ccccc1)NC(=O)OCc1cncs1)S(=O)(=O)c1ccc2nc(NCCN3CCNCC3)sc2c1 [Compound 57] | 1.3 | 1.6 | 1.6 | 1.3 | 1.3 | 1.3 | 9.0
